# Measured values from patent US10932454B2, “LDL receptor gene knockout, genetically-engineered hamster” (HEBEI INVIVO BIOTECH INC, priority 2016, dated 2021).
# “Also recorded” adds a separate entry of the source.
# Legend:
# [1] = tested on: LDL-R gene deficient Δ194 bp heterozygous hamsters; test: High-fat diet feeding with intragastric ezetimibe in LDL-R+/- hamsters; plasma lipids, lipoprotein FPLC, body weight; type: in vivo, golden Syrian hamster
# Description: (§1) The high-fat diet used in the study was a normal rodent diet containing 0.5% cholesterol and 10% lard. The dose of ezetimibe was 2 mg/kg body weight, administered by intragastric administration, and the control group was given tri-distilled water. Plasma was collected before high-fat diet feeding, after two weeks of high-fat diet feeding, before administration and after two weeks of administration, respectively. The hamsters were fasted for 12 hours at night, anesthetized by intraperitoneal injection of pentobarbital sodium, and about 1 ml of blood was collected from the posterior orbital vein, and heparin was used for anticoagulation. A plasma triglyceride assay kit and a total cholesterol assay kit (Biosino Bio-Technology and Science Inc.) were used to detect plasma triglyceride and total cholesterol levels. High-density lipoprotein cholesterol (HDL-C) was tested for cholesterol levels after removal of apoB-containing lipoproteins by polyethylene glycol precipitation. The lipid component of plasma lipoprotein was detected by using fast protein liquid chromatography (FPLC) instrument of Amersham Biocsciences, USA, and the plasma lipoprotein fraction was firstly separated by superose 6 HR10/30 column. 200 μl of plasma was loaded through a 0.22 μm syringe filter, and the separated components were automatically collected at a rate of 0.5 mL per minute, 500 μl per component, for a total of 35 components. The above cholesterol detection kit was applied to each component to detect the cholesterol content, and a plasma lipoprotein profile was prepared.
# [2] = tested on: wild type control hamsters; test: High-fat diet feeding with intragastric ezetimibe in wild type hamsters; plasma lipids; type: in vivo, golden Syrian hamster; conditions: WT hamsters, high-fat diet plus 2 mg/kg ezetimibe intragastric daily for two weeks
# Description: as §1, with “200 μl of plasma was loaded through a 0.22 μm syringe filter, and the separated components were automatically collected at a rate of 0.5 mL per minute, 500 μl per component, for a total of 35 components. The above cholesterol detection kit was applied to each component to detect the cholesterol content, and a plasma lipoprotein profile was prepared.” left out
# [3] = 2 mg/kg intragastric daily, two weeks, high-fat diet
smiles,measurement,setting,value
O=C1[C@H](CC[C@H](O)c2ccc(F)cc2)[C@@H](c2ccc(O)cc2)N1c1ccc(F)cc1 [ezetimibe],effect on hyperlipidemia of LDL-R knockout hamsters,"[1]; 2 mg/kg intragastric daily, high-fat diet",significantly reverses hyperlipidemia; also recorded: significantly reversed hypelipidemia
same,HDL cholesterol in plasma (FPLC),[1]; [3],not significantly changed; also recorded: little effect on HDL
same,VLDL and LDL cholesterol in plasma (FPLC),[1]; [3],decrease of VLDL-C and LDL-C; also recorded: mainly decreased VLDL and LDL in plasma
same,"body weight, ezetimibe-administered group vs high-fat diet feeding group","[1]; 2 mg/kg intragastric daily, two weeks, high-fat diet, each group of hamsters (WT and LDL-R+/-)",no significant difference
same,plasma cholesterol change after administration (in words),"[1]; LDL-R heterozygous hamster on high-fat diet (0.5% cholesterol, 10% fat), ezetimibe 2 mg/kg",decreased to the level of the wild type hamster fed on common diet
same,triglyceride level after administration,"[1]; LDL-R+/- hamsters, high-fat diet plus 2 mg/kg ezetimibe intragastric daily for two weeks, high-fat diet only 658 mg/dL",225 mg/dL
same,plasma cholesterol level after administration,"[1]; LDL-R+/- hamsters, high-fat diet plus 2 mg/kg ezetimibe intragastric daily for two weeks, high-fat diet only 1864 mg/dL",157 mg/dL
same,triglyceride level after administration,[2]; high-fat diet only 413 mg/dL,157 mg/dL
same,plasma cholesterol level after administration,[2]; high-fat diet only 513 mg/dL,111 mg/dL
